Results reported in patent publication US7771977B2, “Alkane polyol dehydrogenase” (National University Corporation Nara Institute of Science …, priority 2006, dated 2010).
“Also recorded” adds a separate entry of the source. Where two headings read alike, the source gives them in different places.

How the values were obtained:
[1] = tested on: alkane polyol dehydrogenase (purified enzyme); assay type: biochemical, Pichia ofunaensis
Description: (§1) The reaction solutions were prepared using plural substrates with varied concentrations. Each solution contained a substrate, 2 mM NAD^+, and an enzyme, and was allowed to react in a 100 mM potassium phosphate buffer solution (pH 8.0) at 25° C. Then, changes in absorbance (molar absorption coefficient 6,220 M^−1·cm^−1) at 340 nm due to the NADH formation were measured. 1 U is defined as an enzyme amount for catalyzing 1 μmol NADH formation per minute.
(§2) The alkane polyol dehydrogenase obtained in Example 1 was utilized to measure the enzyme activities in the following manner.
(§3) 1 U was defined as the amount of enzyme that catalyzes the formation of 1 μmol of NADH per minute.
(§4) Measurement was performed in the same manner as in the activity measurements described earlier in 4-1.
Such activity was measured by causing a reaction mixture containing 5 mM (R)-1,2-octanediol, 2 mM NAD^+ and enzyme to react in a 100 mM potassium phosphate buffer solution (pH 8.0) at 25° C., then observing the change, due to NADH formation, of absorbance (molecular absorption coefficient 6,220 M^−1 ·cm^−1) at 340 nm. 1 U was defined as the amount of enzyme that catalyzes the formation of 1 μmol of NADH per minute.

[2] = tested on: alkane polyol dehydrogenase expressed in E. coli HB101 (pSE-HOG); assay: Substrate specificity, cell extract of transformant E. coli HB101 (pSE-HOG); assay type: biochemical, Pichia ofunaensis; conditions: for dehydrogenation (oxidative) activity of E. coli HB101 (pSE-HOG), in words: Table 4; for Activity, E. coli HB101 (pSE-HOG): cell extract, 2 mM NAD+, pH 8.0, 25° C.
Description: The Escherichia coli HB101 strain containing the pSE-HOG was cultivated in LB medium containing ampicillin. When the absorbance at 600 nm was 0.5, 0.1 mM IPTG was added thereto. Six hours after the addition, cells were harvested by centrifugal separation.
The obtained cells were suspended in a cell disruption solution (100 mM potassium phosphate buffer solution (pH 8.0)). The cell bodies therein were disrupted using a mini bead beater (produced by BioSpec Products), then subjected to centrifugal separation for 10 minutes under an acceleration of 16,000 g. Thereby, the supernatant thereof as a cell extract was obtained.
as §3
(§5) The substrate specificity of the protein of the present invention was analyzed using the purified enzyme obtained in Example 1 and the transformant (E. coli HB101 (pSE-HOG)) obtained in Example 3. For comparison, the same analysis was conducted with respect to a transformant (E. coli HB101 (pSE420D)) that was produced in the same manner as for E. coli HB101 (pSE-HOG), except that the plasmid (pSE420D) in which the relevant enzyme gene was not inserted was used.
as §4

E. coli HB101 (pSE420D) = assay: Substrate specificity, comparison transformant E. coli HB101 (pSE420D) without the enzyme gene; assay type: biochemical, Escherichia coli; conditions: for Activity, E. coli HB101 (pSE-420D): comparison transformant, substrate 100 mM, 2 mM NAD+, pH 8.0, 25° C.
Description: as §3, §5, §4

[3] = tested on: alkane polyol dehydrogenase (purified enzyme); assay: Reduction activity measurement with purified alkane polyol dehydrogenase (NADH reduction at 340 nm); assay type: biochemical, Pichia ofunaensis; conditions: for Reduction Activity: 0.2 mM NADH, pH 6.0, 25° C.; for reduction activity of the purified enzyme, in words: Table 3
Description: as §1, with “substrate, 0.2” for “substrate, 2”, “mM NADH,” for “mM NAD^+,”, “(pH 6.0)” for “(pH 8.0)”, “NADH reduction” for “NADH formation”, “per minutes.” for “per minute.”
as §2
1 U was defined as the amount of enzyme that catalyzes the reduction of 1 μmol of NADH per minute.

[4] = purified enzyme, Tables 2 and 4
[5] = purified enzyme, substrate 100 mM, 2 mM NAD+, pH 8.0, 25° C.

CCC(O)CO (stereo not drawn) [1,2-Butanediol] was tested, and the “oxidative (dehydrogenation) activity of the purified enzyme, in words” value (“oxidative (dehydrogenation) activity” for short) [1, 4] was “well-oxidized” and the “Oxidative Activity” value [1, 5] was 61.0 U/mg.

For CCCCCC(O)CO (stereo not drawn) [1,2-Heptanediol], the “oxidative (dehydrogenation) activity” value [1, 4] was “well-oxidized” and the “Oxidative Activity” value ([1]; purified enzyme, substrate 10 mM, 2 mM NAD+, pH 8.0, 25° C.) was 27.8 U/mg.

With CCCCC(O)CO (stereo not drawn) [1,2-Hexanediol] the “oxidative (dehydrogenation) activity” value [1, 4] was “well-oxidized” and the “Oxidative Activity” value [1, 5] was 38.4 U/mg.

CCCCCCC(O)CO (stereo not drawn) [1,2-Octanediol] was tested, and the “oxidative (dehydrogenation) activity” value [1, 4] was “well-oxidized”, the “oxidative (dehydrogenation) activity” value ([1]; purified enzyme, Tables 2 and 4, listed as (R,S)-1,2-octanediol) was “excellent dehydrogenation activity; also recorded: show an oxidative activity” and the “Oxidative Activity” value ([1]; purified enzyme, substrate 5 mM, 2 mM NAD+, pH 8.0, 25° C.) was 64.3 U/mg. For the same compound, the “dehydrogenation (oxidative) activity of E. coli HB101 (pSE-HOG), in words” value (“dehydrogenation (oxidative) activity” for short) ([2]; listed as (R,S)-1,2-octanediol) was “excellent dehydrogenation activity; also recorded: show an oxidative activity”, the “Activity, E. coli HB101 (pSE-HOG)” value ([2]; substrate 5 mM) was 0.53 U/mg and the “dehydrogenation activity of E. coli HB101 (pSE420D), in words” value (E. coli HB101 (pSE420D); Table 4) was “does not show the dehydrogenation activity”.

CCCC(O)CO (stereo not drawn) [1,2-Pentanediol] was tested, and the “oxidative (dehydrogenation) activity” value [1, 4] was “well-oxidized” and the “Oxidative Activity” value [1, 5] was 99.3 U/mg.

For CC(O)CO (stereo not drawn) [1,2-Propanediol], the “oxidative (dehydrogenation) activity” value [1, 4] was “well-oxidized; also recorded: high dehydrogenation activity”, the “Oxidative Activity” value [1, 5] was 71.7 U/mg and the “dehydrogenation (oxidative) activity” value [2] was “high dehydrogenation activity”.

In the case of CC(O)CCO (stereo not drawn) [1,3-Butanediol], the “oxidative (dehydrogenation) activity” value [1, 4] was “only a weak oxidative activity” and the “Oxidative Activity” value [1, 5] was 6.0 U/mg.

With CCCCO [1-Butanol] the “oxidative (dehydrogenation) activity” value [1] was “did not have oxidative activity”.

In the case of CCC(=O)CO [1-Hydroxy-2-butanone], the “Reduction Activity” value ([3]; substrate 100 mM) was 5.84 U/mg.

For CCCCCO [1-Pentanol], the “oxidative (dehydrogenation) activity” value [1, 4] was “did not have oxidative activity”.

With CCCO [1-Propanol] the “oxidative (dehydrogenation) activity” value [1] was “did not have oxidative activity”.

CC(O)C(C)O (stereo not drawn) [2,3-Butanediol] was tested, and the “oxidative (dehydrogenation) activity” value [1, 4] was “well-oxidized; also recorded: high dehydrogenation activity”, the “Oxidative Activity” value [1, 5] was 50.0 U/mg and the “dehydrogenation (oxidative) activity” value [2] was “high dehydrogenation activity”.

For CCCC(=O)C(C)=O [2,3-Hexanedione], the “reduction activity of the purified enzyme, in words” value (shortened to “reduction activity … in words”) [3] was “high reduction activity” and the “Reduction Activity” value ([3]; substrate 5 mM) was 67.5 U/mg.

In the case of CCC(=O)C(C)=O [2,3-Pentanedione], the “reduction activity … in words” value [3] was “high reduction activity” and the “Reduction Activity” value ([3]; substrate 5 mM) was 73.8 U/mg.

CC(O)CC(C)O (stereo not drawn) [2,4-Pentanediol] was tested, and the “oxidative (dehydrogenation) activity” value [1, 4] was “only a weak oxidative activity” and the “Oxidative Activity” value [1, 5] was 2.53 U/mg.

In the case of CC(O)CCC(C)O (stereo not drawn) [2,5-Hexanediol], the “oxidative (dehydrogenation) activity” value [1, 4] was “only a weak oxidative activity” and the “Oxidative Activity” value [1, 5] was 0.77 U/mg.

CCC(C)O (stereo not drawn) [2-Butanol] was tested, and the “oxidative (dehydrogenation) activity” value [1] was “weak oxidative activity” and the “Oxidative Activity” value ([1]; pH 8) was less than 0.1 U/mg.

CCC(C)=O [2-Butanone] was tested, and the “Reduction Activity” value ([3]; substrate 100 mM) was 0.40 U/mg.

For CCCCCC(C)O (stereo not drawn) [2-Heptanol], the “oxidative (dehydrogenation) activity” value [1, 4] was “no activity was observed”.

In the case of CCCCCCC(C)O (stereo not drawn) [2-Octanol], the “oxidative (dehydrogenation) activity” value [1, 4] was “no activity was observed”.

CCCC(C)=O [2-Pentanone] was tested, and the “Reduction Activity” value ([3]; substrate 100 mM) was 3.71 U/mg.

In the case of CCC(=O)C(=O)CC [3,4-Hexanedione], the “reduction activity … in words” value [3] was “high reduction activity” and the “Reduction Activity” value ([3]; substrate 5 mM) was 32.8 U/mg.

For CCCC(=O)CC [3-Hexanone], the “Reduction Activity” value ([3]; substrate 10 mM) was 1.39 U/mg.

With CC(=O)C(C)O (stereo not drawn) [3-Hydroxy-2-butanone] the “Oxidative Activity” value [1, 5] was 0.55 U/mg, the “reduction activity … in words” value [3] was “high reduction activity” and the “Reduction Activity” value ([3]; substrate 100 mM) was 102 U/mg.

With C[C@@H](O)[C@@H](C)O [(2R,3R)-2,3-Butanediol] the “Oxidative Activity” value [1, 5] was 82.1 U/mg and the “Activity, E. coli HB101 (pSE-HOG)” value ([2]; substrate 100 mM) was 0.72 U/mg.

C[C@H](O)[C@H](C)O [(2S,3S)-2,3-Butanediol] was tested, and the “Oxidative Activity” value [1, 5] was 19.4 U/mg and the “Activity, E. coli HB101 (pSE-HOG)” value ([2]; substrate 100 mM) was 0.12 U/mg.

For OCC[C@@H](O)CO [(R)-1,2,4-Butanetriol], the “oxidative (dehydrogenation) activity” value [1, 4] was “significant dehydrogenation activity”, the “Oxidative Activity” value [1, 5] was 3.9 U/mg and the “dehydrogenation (oxidative) activity” value [2] was “significant dehydrogenation activity”. The “Activity, E. coli HB101 (pSE-HOG)” value ([2]; substrate 100 mM) was 0.15 U/mg.

For C[C@@H](O)CO [(R)-1,2-Propanediol], the “Oxidative Activity” value [1, 5] was 89.2 U/mg, the “Activity, E. coli HB101 (pSE-HOG)” value ([2]; substrate 100 mM) was 0.80 U/mg and the “Activity, E. coli HB101 (pSE-420D)” value (E. coli HB101 (pSE420D)) was less than 0.1 U/mg.

For CCCCCC[C@@H](O)CO [(R)-1,2-octanediol], the “(R)-1,2-octanediol dehydrogenase activity per 1 mg of the purified protein” value ([1]; per 1 mg purified protein, 5 mM substrate, 2 mM NAD+, pH 8.0, 25° C.) was no less than 60 U.

OCC[C@H](O)CO [(S)-1,2,4-Butanetriol] was tested, and the “oxidative (dehydrogenation) activity” value [1, 4] was “no activity was seen” and the “dehydrogenation (oxidative) activity” value [2] was “no activity was seen”.

For C[C@H](O)CO [(S)-1,2-Propanediol], the “Oxidative Activity” value [1, 5] was 36.4 U/mg, the “Activity, E. coli HB101 (pSE-HOG)” value ([2]; substrate 100 mM) was 0.29 U/mg and the “Activity, E. coli HB101 (pSE-420D)” value (E. coli HB101 (pSE420D)) was less than 0.1 U/mg.

In the case of CC(=O)CO [Acetol], the “reduction activity … in words” value [3] was “high reduction activity” and the “Reduction Activity” value ([3]; substrate 100 mM) was 64.9 U/mg.

OCc1ccccc1 [Benzyl alcohol] was tested, and the “oxidative (dehydrogenation) activity” value [1, 4] was “did not have oxidative activity”.

With O=C1CCCCC1 [Cyclohexanone] the “Reduction Activity” value ([3]; substrate 10 mM) was 0.28 U/mg.

For CCO [Ethanol], the “oxidative (dehydrogenation) activity” value [1] was “did not have oxidative activity”.

With CC(C)O [Isopropanol] the “oxidative (dehydrogenation) activity” value [1, 4] was “weak oxidative activity” and the “Oxidative Activity” value [1, 5] was 1.45 U/mg.

With CO [Methanol] the “oxidative (dehydrogenation) activity” value [1, 4] was “did not have oxidative activity”.

In the case of CC(O)C(C)O (stereo not drawn) [meso-2,3-Butanediol], the “Oxidative Activity” value [1, 5] was 160 U/mg, the “Activity, E. coli HB101 (pSE-HOG)” value ([2]; substrate 100 mM) was 1.17 U/mg and the “Activity, E. coli HB101 (pSE-420D)” value (E. coli HB101 (pSE420D)) was less than 0.1 U/mg.

In the case of CCCCCCO [n-Hexanol], the “oxidative (dehydrogenation) activity” value [1, 4] was “did not have oxidative activity”.
